Experimental data: US10167262B2, “Herbicidal substituted 3-arylpyrazoles” (FMC CORPORATION, priority 2014, dated 2019)

Legend:
Assay in all cases: Test A pre-/postemergence greenhouse herbicide test, visual injury rating 0-100
Type in all cases: in vivo
Conditions in all cases: 1000 g ai/ha
corn (Zea mays) = tested on: corn (Zea mays)
Excerpt: (§1) Seeds of plant species selected from barnyardgrass (Echinochloa crus-galli), large (Lg) crabgrass (Digitaria sanguinalis), giant foxtail (Setaria faberii), morningglory (Ipomoea spp.), pigweed (Amaranthus retroflexus), velvetleaf (Abutilon theophrasti), wheat (Triticum aestivum), and corn (Zea mays) were planted into a blend of loam soil and sand and treated preemergence with a directed soil spray using test chemicals formulated in a non-phytotoxic solvent mixture which included a surfactant. At the same time these species were also treated with postemergence applications of test chemicals formulated in the same manner. Plants ranged in height from 2 to 10 cm and were in the one- to two-leaf stage for the postemergence treatment. Treated plants and untreated controls were maintained in a greenhouse for approximately 10 days, after which time all treated plants were compared to untreated controls and visually evaluated for injury. Plant response ratings, summarized in Table A, are based on a 0 to 100 scale where 0 is no effect and 100 is complete control. A dash (-) response means no test result.

[1] = tested on: morningglory (Ipomoea spp.)
Excerpt: as §1

[2] = tested on: giant foxtail (Setaria faberii)
Excerpt: as §1

[3] = tested on: wheat (Triticum aestivum)
Excerpt: as §1

[4] = tested on: large (Lg) crabgrass (Digitaria sanguinalis)
Excerpt: as §1

[5] = tested on: pigweed (Amaranthus retroflexus)
Excerpt: as §1

[6] = tested on: barnyardgrass (Echinochloa crus-galli)
Excerpt: as §1

[7] = tested on: velvetleaf (Abutilon theophrasti)
Excerpt: as §1

CC(=O)n1cc(C(=O)c2cncc(F)c2)c(-c2cc(Cl)cc(Cl)c2)n1 [Compound 20]
Plant response rating (0 to 100 scale), Corn (corn (Zea mays); Postemergence): 0 | Plant response rating (0 to 100 scale), Corn (corn (Zea mays); Preemergence): 0 | Plant response rating (0 to 100 scale), Morningglory ([1]; Postemergence): 0 | Plant response rating (0 to 100 scale), Morningglory ([1]; Preemergence): 0 | Plant response rating (0 to 100 scale), Foxtail, Giant ([2]; Postemergence): 0 | Plant response rating (0 to 100 scale), Foxtail, Giant ([2]; Preemergence): 0 | Plant response rating (0 to 100 scale), Wheat ([3]; Postemergence): 0 | Plant response rating (0 to 100 scale), Wheat ([3]; Preemergence): 0 | Plant response rating (0 to 100 scale), Crabgrass, Large ([4]; Postemergence): 0 | Plant response rating (0 to 100 scale), Crabgrass, Large ([4]; Preemergence): 0 | Plant response rating (0 to 100 scale), Pigweed ([5]; Postemergence): 90 | Plant response rating (0 to 100 scale), Pigweed ([5]; Preemergence): 100 | Plant response rating (0 to 100 scale), Barnyardgrass ([6]; Postemergence): 0 | Plant response rating (0 to 100 scale), Barnyardgrass ([6]; Preemergence): 0 | Plant response rating (0 to 100 scale), Velvetleaf ([7]; Postemergence): 90 | Plant response rating (0 to 100 scale), Velvetleaf ([7]; Preemergence): 80

CCn1cc(C(=O)c2cncc(F)c2)c(-c2cc(Cl)cc(Cl)c2)n1 [Compound 21]
Plant response rating (0 to 100 scale), Corn (corn (Zea mays); Postemergence): 0 | Plant response rating (0 to 100 scale), Corn (corn (Zea mays); Preemergence): 0 | Plant response rating (0 to 100 scale), Morningglory ([1]; Postemergence): 0 | Plant response rating (0 to 100 scale), Morningglory ([1]; Preemergence): 0 | Plant response rating (0 to 100 scale), Foxtail, Giant ([2]; Postemergence): 0 | Plant response rating (0 to 100 scale), Foxtail, Giant ([2]; Preemergence): 0 | Plant response rating (0 to 100 scale), Wheat ([3]; Postemergence): 0 | Plant response rating (0 to 100 scale), Wheat ([3]; Preemergence): 0 | Plant response rating (0 to 100 scale), Crabgrass, Large ([4]; Postemergence): 10 | Plant response rating (0 to 100 scale), Crabgrass, Large ([4]; Preemergence): 0 | Plant response rating (0 to 100 scale), Pigweed ([5]; Postemergence): 100 | Plant response rating (0 to 100 scale), Pigweed ([5]; Preemergence): 80 | Plant response rating (0 to 100 scale), Barnyardgrass ([6]; Postemergence): 0 | Plant response rating (0 to 100 scale), Barnyardgrass ([6]; Preemergence): 0 | Plant response rating (0 to 100 scale), Velvetleaf ([7]; Postemergence): 90 | Plant response rating (0 to 100 scale), Velvetleaf ([7]; Preemergence): 80

CON=C(c1ccccc1)c1c[nH]nc1-c1cc(Br)cc(Br)c1 [Compound 29]
Plant response rating (0 to 100 scale), Corn (corn (Zea mays); Postemergence): 0 | Plant response rating (0 to 100 scale), Corn (corn (Zea mays); Preemergence): 0 | Plant response rating (0 to 100 scale), Morningglory ([1]; Postemergence): 0 | Plant response rating (0 to 100 scale), Morningglory ([1]; Preemergence): 0 | Plant response rating (0 to 100 scale), Foxtail, Giant ([2]; Postemergence): 10 | Plant response rating (0 to 100 scale), Foxtail, Giant ([2]; Preemergence): 0 | Plant response rating (0 to 100 scale), Wheat ([3]; Postemergence): 0 | Plant response rating (0 to 100 scale), Wheat ([3]; Preemergence): 0 | Plant response rating (0 to 100 scale), Crabgrass, Large ([4]; Postemergence): 0 | Plant response rating (0 to 100 scale), Crabgrass, Large ([4]; Preemergence): 0 | Plant response rating (0 to 100 scale), Pigweed ([5]; Postemergence): 90 | Plant response rating (0 to 100 scale), Pigweed ([5]; Preemergence): 40 | Plant response rating (0 to 100 scale), Barnyardgrass ([6]; Postemergence): 0 | Plant response rating (0 to 100 scale), Barnyardgrass ([6]; Preemergence): 0 | Plant response rating (0 to 100 scale), Velvetleaf ([7]; Postemergence): 90 | Plant response rating (0 to 100 scale), Velvetleaf ([7]; Preemergence): 70
